Test results taken from PubChem BioAssay (NCI).
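These data come from cells grown in 96-well plates and exposed to compound for 48 hours at five concentrations. GI50 = concentration required for 50% inhibition of growth. TGI denotes the concentration required for complete inhibition of growth.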

Experiments:
Test in all cases: NCI tumour cell line growth inhibition, 48 h
HOP-62 NSCLC = test system: HOP-62 NSCLC
SK-MEL-2 melanoma = test system: SK-MEL-2 melanoma
786-0 renal = test system: 786-0 renal
UACC-257 melanoma = test system: UACC-257 melanoma
KM12 colon = test system: KM12 colon
SR leukemia = test system: SR leukemia
A549 NSCLC = test system: A549 NSCLC
NCI-H522 lung = test system: NCI-H522 lung
MDA-MB-435 = test system: MDA-MB-435
SNB-19 CNS = test system: SNB-19 CNS
CAKI-1 renal = test system: CAKI-1 renal
RXF 393 renal = test system: RXF 393 renal
T-47D breast = test system: T-47D breast
NCI-H23 lung = test system: NCI-H23 lung
EKVX NSCLC = test system: EKVX NSCLC
COLO 205 colon = test system: COLO 205 colon
BT-549 breast = test system: BT-549 breast
ACHN renal = test system: ACHN renal
SF-268 CNS = test system: SF-268 CNS
TK-10 renal = test system: TK-10 renal
IGROV1 ovarian = test system: IGROV1 ovarian
UACC-62 melanoma = test system: UACC-62 melanoma
A498 renal = test system: A498 renal
MCF7 breast = test system: MCF7 breast
SNB-75 CNS = test system: SNB-75 CNS
SF-295 CNS = test system: SF-295 CNS
NCI-H226 lung = test system: NCI-H226 lung
UO-31 renal = test system: UO-31 renal
SK-MEL-28 melanoma = test system: SK-MEL-28 melanoma
SF-539 CNS = test system: SF-539 CNS
DU-145 prostate = test system: DU-145 prostate
HOP-92 NSCLC = test system: HOP-92 NSCLC
U251 CNS = test system: U251 CNS
OVCAR-4 ovarian = test system: OVCAR-4 ovarian
MDA-MB-231 breast = test system: MDA-MB-231 breast
HS 578T breast = test system: HS 578T breast
NCI/ADR-RES ovarian = test system: NCI/ADR-RES ovarian
OVCAR-5 ovarian = test system: OVCAR-5 ovarian
OVCAR-8 ovarian = test system: OVCAR-8 ovarian
M14 melanoma = test system: M14 melanoma
SK-MEL-5 melanoma = test system: SK-MEL-5 melanoma
HCC-2998 colon = test system: HCC-2998 colon
HCT-116 colon = test system: HCT-116 colon
HCT-15 colon = test system: HCT-15 colon
MALME-3M melanoma = test system: MALME-3M melanoma
SN12C renal = test system: SN12C renal
HT29 colon = test system: HT29 colon
LOX IMVI melanoma = test system: LOX IMVI melanoma
OVCAR-3 ovarian = test system: OVCAR-3 ovarian
PC-3 prostate = test system: PC-3 prostate
SK-OV-3 ovarian = test system: SK-OV-3 ovarian
SW-620 colon = test system: SW-620 colon
RPMI-8226 leukemia = test system: RPMI-8226 leukemia
NCI-H460 lung = test system: NCI-H460 lung
MOLT-4 leukemia = test system: MOLT-4 leukemia
CCRF-CEM leukemia = test system: CCRF-CEM leukemia
K-562 leukemia = test system: K-562 leukemia
HL-60(TB) leukemia = test system: HL-60(TB) leukemia

## CN(C)CCN1C(=O)c2ccc3c4c(ccc(c24)C1=O)C(=O)N(CCN=C=S)C3=O
HOP-62 NSCLC
  GI50: 50.3 nM
  TGI: 194 nM
SK-MEL-2 melanoma
  GI50: 56.3 nM
  TGI: 225 nM
786-0 renal
  GI50: 43.6 nM
  TGI: 416 nM
UACC-257 melanoma
  GI50: 84.9 nM
  TGI: 216 nM
KM12 colon
  GI50: 41.5 nM
  TGI: 173 nM
SR leukemia
  GI50: < 17.2 nM
A549 NSCLC
  GI50: 73.9 nM
  TGI: 252 nM
NCI-H522 lung
  GI50: 31.1 nM
  TGI: 145 nM
MDA-MB-435
  GI50: 58.5 nM
  TGI: 249 nM
SNB-19 CNS
  GI50: 95.4 nM
  TGI: 596 nM
CAKI-1 renal
  GI50: 44.8 nM
  TGI: 785 nM
RXF 393 renal
  GI50: 41.6 nM
  TGI: 177 nM
T-47D breast
  GI50: 29.9 nM
  TGI: 165 nM
NCI-H23 lung
  GI50: 162 nM
  TGI: 417 nM
EKVX NSCLC
  GI50: 396 nM
  TGI: 1500 nM
COLO 205 colon
  GI50: 25.4 nM
  TGI: 92.2 nM
BT-549 breast
  GI50: 129 nM
  TGI: 297 nM
ACHN renal
  GI50: 25.6 nM
  TGI: 123 nM
SF-268 CNS
  GI50: 46.6 nM
  TGI: 290 nM
TK-10 renal
  GI50: 21.8 nM
  TGI: 109 nM
IGROV1 ovarian
  GI50: 51 nM
  TGI: 236 nM
UACC-62 melanoma
  GI50: 71 nM
  TGI: 211 nM
A498 renal
  GI50: 52.9 nM
  TGI: 207 nM
MCF7 breast
  GI50: 25.7 nM
  TGI: 129 nM
SNB-75 CNS
  GI50: 58 nM
  TGI: 198 nM
SF-295 CNS
  GI50: 122 nM
  TGI: 513 nM
NCI-H226 lung
  GI50: 100 nM
  TGI: 325 nM
UO-31 renal
  GI50: 28.1 nM
  TGI: 157 nM
SK-MEL-28 melanoma
  GI50: 83.9 nM
  TGI: 209 nM
SF-539 CNS
  GI50: 48.2 nM
  TGI: 212 nM
DU-145 prostate
  GI50: 41.5 nM
  TGI: 149 nM
HOP-92 NSCLC
  GI50: 26.2 nM
  TGI: 174 nM
U251 CNS
  GI50: 34.7 nM
  TGI: 153 nM
OVCAR-4 ovarian
  GI50: 130 nM
  TGI: 365 nM
MDA-MB-231 breast
  GI50: 94.2 nM
  TGI: 352 nM
HS 578T breast
  GI50: 127 nM
  TGI: 680 nM
NCI/ADR-RES ovarian
  GI50: 52.4 nM
  TGI: 495 nM
OVCAR-5 ovarian
  GI50: 153 nM
  TGI: 815 nM
OVCAR-8 ovarian
  GI50: 28.8 nM
  TGI: 173 nM
M14 melanoma
  GI50: 73.5 nM
  TGI: 216 nM
SK-MEL-5 melanoma
  GI50: 113 nM
  TGI: 235 nM
HCC-2998 colon
  GI50: 172 nM
  TGI: 381 nM
HCT-116 colon
  GI50: 27 nM
  TGI: 134 nM
HCT-15 colon
  GI50: 57.9 nM
  TGI: 221 nM
MALME-3M melanoma
  GI50: 74.7 nM
  TGI: 224 nM
SN12C renal
  GI50: 36.4 nM
  TGI: 177 nM
HT29 colon
  GI50: 29.7 nM
  TGI: 115 nM
LOX IMVI melanoma
  GI50: 35.2 nM
  TGI: 127 nM
OVCAR-3 ovarian
  GI50: 26.7 nM
  TGI: 89.7 nM
PC-3 prostate
  GI50: 51.3 nM
  TGI: 667 nM
SK-OV-3 ovarian
  GI50: 164 nM
  TGI: 668 nM
SW-620 colon
  GI50: 26.9 nM
  TGI: 155 nM
RPMI-8226 leukemia
  GI50: 31.8 nM
  TGI: 197 nM

## COc1ccc(/C=C/C(=O)C(CC2CCC2)C(=O)/C=C/c2ccc(OC)c(OC)c2)cc1OC
NCI-H460 lung
  GI50: 2010 nM
  TGI: 4140 nM
SK-MEL-2 melanoma
  GI50: 2110 nM
  TGI: 4700 nM
786-0 renal
  GI50: 1830 nM
  TGI: 3450 nM
MOLT-4 leukemia
  GI50: 2820 nM
  TGI: 8950 nM
UACC-257 melanoma
  GI50: 1860 nM
  TGI: 3410 nM
KM12 colon
  GI50: 2220 nM
  TGI: 6660 nM
SR leukemia
  GI50: 1040 nM
  TGI: > 100000 nM
MDA-MB-435
  GI50: 1490 nM
  TGI: 3150 nM
RXF 393 renal
  GI50: 1850 nM
  TGI: 3470 nM
CCRF-CEM leukemia
  GI50: 2050 nM
  TGI: > 100000 nM
T-47D breast
  GI50: 1390 nM
  TGI: 4440 nM
NCI-H23 lung
  GI50: 2190 nM
  TGI: 5870 nM
EKVX NSCLC
  GI50: 2730 nM
  TGI: 9900 nM
COLO 205 colon
  GI50: 2410 nM
  TGI: 5000 nM
BT-549 breast
  GI50: 1540 nM
  TGI: 4040 nM
ACHN renal
  GI50: 1480 nM
  TGI: 2950 nM
SF-268 CNS
  GI50: 2580 nM
  TGI: 9510 nM
TK-10 renal
  GI50: 2590 nM
  TGI: 4880 nM
IGROV1 ovarian
  GI50: 2000 nM
  TGI: 5270 nM
A498 renal
  GI50: 1820 nM
  TGI: 3330 nM
MCF7 breast
  GI50: 600 nM
  TGI: 40500 nM
SNB-75 CNS
  GI50: 1320 nM
  TGI: 2740 nM
SF-295 CNS
  GI50: 2500 nM
  TGI: 7220 nM
NCI-H226 lung
  GI50: 2680 nM
  TGI: 6740 nM
UO-31 renal
  GI50: 1560 nM
  TGI: 2900 nM
SK-MEL-28 melanoma
  GI50: 2160 nM
  TGI: 5390 nM
SF-539 CNS
  GI50: 1710 nM
  TGI: 3570 nM
DU-145 prostate
  GI50: 1710 nM
  TGI: 3560 nM
HOP-92 NSCLC
  GI50: 2640 nM
  TGI: 7900 nM
U251 CNS
  GI50: 1380 nM
  TGI: 2790 nM
OVCAR-4 ovarian
  GI50: 2340 nM
  TGI: > 100000 nM
MDA-MB-231 breast
  GI50: 3770 nM
  TGI: > 100000 nM
HS 578T breast
  GI50: 3190 nM
  TGI: > 100000 nM
NCI/ADR-RES ovarian
  GI50: 2580 nM
  TGI: > 100000 nM
OVCAR-5 ovarian
  GI50: 2550 nM
  TGI: 5600 nM
K-562 leukemia
  GI50: 2150 nM
  TGI: > 100000 nM
SK-MEL-5 melanoma
  GI50: 1770 nM
  TGI: 3250 nM
HCC-2998 colon
  GI50: 1850 nM
  TGI: 3410 nM
HCT-116 colon
  GI50: 965 nM
  TGI: 2420 nM
HCT-15 colon
  GI50: 1280 nM
  TGI: 3900 nM
MALME-3M melanoma
  GI50: 2090 nM
  TGI: 5040 nM
SN12C renal
  GI50: 1930 nM
  TGI: 4550 nM
HT29 colon
  GI50: 1780 nM
  TGI: 4340 nM
LOX IMVI melanoma
  GI50: 1250 nM
  TGI: 2520 nM
OVCAR-3 ovarian
  GI50: 1040 nM
  TGI: 3040 nM
HL-60(TB) leukemia
  GI50: 1690 nM
  TGI: 5940 nM
PC-3 prostate
  GI50: 2850 nM
  TGI: > 100000 nM
SK-OV-3 ovarian
  GI50: 2690 nM
  TGI: 6690 nM
SW-620 colon
  GI50: 1550 nM
  TGI: 3570 nM
RPMI-8226 leukemia
  GI50: 1730 nM
  TGI: 6400 nM
